Test results: US11339156B2, “3-(1H-pyrazol-4-yl)pyridine allosteric modulators of the M4 muscarinic acetylcholine receptor” (Merck Sharp & Dohme Corp., priority 2017, dated 2022)

What follows are compounds tested against T1, human M4 muscarinic acetylcholine receptor (Homo sapiens, UniProt P08173) (assay: human FLIPR-based M4 PAM assay (CHO-K1 cells with human M4 receptor and Gαqi5, calcium dye fluorescence)). Conditions: inflection point of 4 parameter logistic fit; acetylcholine added at 20% of maximum response; read-out: M4PAM IP.
T1 construct: expressed in transfected cells
T1 sequence (P08173 1-479): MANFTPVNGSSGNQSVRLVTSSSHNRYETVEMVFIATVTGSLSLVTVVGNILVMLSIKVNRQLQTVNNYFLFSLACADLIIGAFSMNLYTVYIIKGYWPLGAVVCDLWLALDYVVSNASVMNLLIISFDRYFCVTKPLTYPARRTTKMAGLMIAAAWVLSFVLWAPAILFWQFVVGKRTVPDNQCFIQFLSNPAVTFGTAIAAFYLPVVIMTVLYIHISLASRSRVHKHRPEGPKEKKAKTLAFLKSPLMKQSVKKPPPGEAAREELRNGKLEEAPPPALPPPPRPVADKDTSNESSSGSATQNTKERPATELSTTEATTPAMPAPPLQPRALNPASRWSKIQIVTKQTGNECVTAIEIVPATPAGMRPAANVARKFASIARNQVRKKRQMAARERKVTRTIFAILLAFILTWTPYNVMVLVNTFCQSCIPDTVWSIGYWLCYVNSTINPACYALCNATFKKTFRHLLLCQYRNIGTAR
Format: cell-based
Method: In a typical experiment the M4 muscarinic acetylcholine receptor modulating activity of the compounds of the present invention was determined in accordance with the following experimental method. CHO-K1 cells stably transfected with human M4 receptor and chimeric G-protein Gαqi5 (Coward P, et al., Analytical Biochemistry, 270:242-248 (1999)) are thawed from liquid N2 storage, resuspended in growth medium, plated in black, clear bottom 384 well plates, and incubated 16-20 hours at 37° C., 5% CO2. On the day of assay, growth medium is removed, the cells are washed 2 times with wash buffer, and cells are incubated in dye loading buffer at 37° C., 5% CO2 for ˜1 hour. Following dye loading the cell plates are placed in a FLIPR Tetra instrument and while monitoring dye fluorescence (excitation […]), 10 uL of test substance at increasing concentrations is added, and fluorescence values are recorded for 4 min. Next, 10 uL of acetylcholine is added (final concentration calculated so as to achieve 20% of the maximum acetycholine response), and the fluorescence reading is continued for 3.5 min. In some cases, a third addition of acetylcholine (final concentration calculated to achieve 70% of the maximal acetylcholine response) is performed. The resulting dose response curves are fit to a 4 parameter logistic equation and the final result is determined as the inflection point (IP) of the curve
CHO-K1 cells stably transfected with human M4 receptor and chimeric G-protein Gαqi5 are thawed from liquid N2 storage, resuspended in growth medium, plated in black, clear bottom 384 well plates, and incubated 16-20 hours at 37° C., 5% CO2.
On the day of assay, growth medium is removed, the cells are washed 2 times with wash buffer, and cells are incubated in dye loading buffer at 37° C., 5% CO2 for ˜1 h. Following dye loading the cell plates are placed in a FLIPR Tetra instrument and while monitoring dye fluorescence ([…]), 10 uL of test substance at increasing concentrations is added, and fluorescence values are recorded for 4 min. Next, 10 uL of acetylcholine is added (final concentration calculated so as to achieve 20% of the maximum acetycholine response), and the fluorescence reading is continued for 3.5 min. In some cases, a third addition of acetylcholine (final concentration calculated to achieve 70% of the maximal acetylcholine response) is performed.

| EC50 | Structure (SMILES) |
| --- | --- |
| 243 nM | Cn1nc2ccc(-c3nc(C#N)ccc3-c3cnn(CC(C)(C)C)c3)cc2n1 [Example 69, 5-[1-(2,2-dimethylpropyl)-1H-pyrazol-4-yl]-6-(2-methyl-2H-benzotriazol-5-yl)pyridine-2-carbonitrile] |
| 102 nM | Cc1nnc2cc(-c3nc(C#N)ccc3-c3cnn(CC(C)(C)C)c3)ccn12 [Example 70, 5-[1-(2,2-dimethylpropyl)-1H-pyrazol-4-yl]-6-(3-methyl[1,2,4]triazolo[4,3-a]pyridin-7-yl)pyridine-2-carbonitrile] |
| 55.8 nM | Cc1ccc(-c2cnn(CC(C)(C)C)c2)c(-c2ccn3cnnc3c2)n1 [Example 71, 7-{3-[1-(2,2-dimethylpropyl)-1H-pyrazol-4-yl]-6-methylpyridin-2-yl}[1,2,4]triazolo[4,3-a]pyridine] |
| 136 nM | CC(C)(C)Cn1cc(-c2ccc(C#N)nc2-c2ccn3ncnc3c2)cn1 [Example 72, 5-[1-(2,2-dimethylpropyl)-1H-pyrazol-4-yl]-6-[1,2,4]triazolo[1,5-a]pyridin-7-ylpyridine-2-carbonitrile] |
| 126 nM | CC(C)(C)Cn1cc(-c2ccc(C#N)nc2-c2ccn3nc(CO)nc3c2)cn1 [Example 73, 5-[1-(2,2-dimethylpropyl)-1H-pyrazol-4-yl]-6-[2-(hydroxymethyl)[1,2,4]triazolo[1,5-a]pyridin-7-yl]pyridine-2-carbonitrile] |
| 337 nM | CC(C)CCn1cc(-c2cccnc2-c2ccc3c(c2)C(=O)NC3)cn1 [Example 74, 6-{3-[1-(3-methylbutyl)-1H-pyrazol-4-yl]pyridin-2-yl}-2,3-dihydro-1H-isoindol-1-one] |
| 106 nM | Cc1ccc(-c2cnn(CCC(C)C)c2)c(-c2ccc3c(c2)CNC3)n1 [Example 75, 5-{6-methyl-3-[1-(3-methylbutyl)-1H-pyrazol-4-yl]pyridin-2-yl}-2,3-dihydro-1H-isoindole] |
| 76 nM | Cc1ccc(-c2cnn(CCC(C)C)c2)c(-c2ccc3c(c2)CN(C(=O)OC(C)(C)C)C3)n1 [Example 76, tert-butyl 5-{6-methyl-3-[1-(3-methylbutyl)-1H-pyrazol-4-yl]pyridin-2-yl}-1,3-dihydro-2H-isoindole-2-carboxylate] |
| 278 nM | CC(C)CCn1cc(-c2cc(Cl)cnc2-c2ccc3cn(C)nc3c2)cn1 [Example 77, 6-{5-chloro-3-[1-(3-methylbutyl)-1H-pyrazol-4-yl]pyridin-2-yl}-2-methyl-2H-indazole] |
| 204 nM | CC(C)CCn1cc(-c2cc(Cl)cnc2-c2ccc3scnc3c2)cn1 [Example 78, 5-{5-chloro-3-[1-(3-methylbutyl)-1H-pyrazol-4-yl]pyridin-2-yl}-1,3-benzothiazole] |

More lines, now with the values behind:

| Structure (SMILES) | EC50 |
| --- | --- |
| CN1Cc2ccc(-c3nc(C#N)c(F)cc3-c3cnn(CC4(C(F)(F)F)CC4)c3)cc2C1=O [Example 54, 3-fluoro-6-(2-methyl-3-oxo-2,3-dihydro-1H-isoindol-5-yl)-5-(1-{[1-(trifluoromethyl)cyclo-propyl]methyl}-1H-pyrazol-4-yl)pyridine-2-carbonitrile] | 44.7 nM |
| Cc1nc2cc(-c3nc(C#N)ccc3-c3cnn(CC4(C(F)(F)F)CC4)c3)ccc2o1 [Example 55, 6-(2-methyl-1,3-benzoxazol-5-yl)-5-(1-{[1-(trifluoromethyl)cyclo-propyl]methyl}-1H-pyrazol-4-yl)pyridine-2-carbonitrile] | 176 nM |
| N#Cc1ccc(-c2cnn(CC3(C(F)(F)F)CC3)c2)c(-c2ccn3ccnc3c2)n1 [Example 56, 6-imidazo[1,2-a]pyridin-7-yl-5-(1-{[1-(trifluoromethyl)cyclo-propyl]methyl}-1H-pyrazol-4-yl)pyridine-2-carbonitrile] | 127 nM |
| FC(F)(F)C1(Cn2cc(-c3cc(Cl)cnc3-c3ccn4ccnc4c3)cn2)CC1 [Example 57, 7-[5-chloro-3-(1-{[1-(trifluoromethyl)cyclo-propyl]methyl}-1H-pyrazol-4-yl)pyridin-2-yl]imidazo[1,2-a]pyridine] | 268 nM |
| Cc1cn2ccc(-c3nc(C#N)ccc3-c3cnn(CC4(C(F)F)CC4)c3)cc2n1 [Example 58, 5-(1-{[1-(difluoromethyl)cyclo-propyl]methyl}-1H-pyrazol-4-yl)-6-(2-methylimidazo[1,2-a]pyridin-7-yl)pyridine-2-carbonitrile] | 49.1 nM |
| FC(F)(F)C1(Cn2cc(-c3ccc(Cl)nc3-c3ccn4ccnc4c3)cn2)CC1 [Example 59, 7-[6-chloro-3-(1-{[1-(trifluoromethyl)cyclo-propyl]methyl}-1H-pyrazol-4-yl)pyridin-2-yl]imidazo[1,2-a]pyridine] | 65.4 nM |
| Cc1cc(-c2cnn(CC3(C(F)(F)F)CC3)c2)c(-c2ccn3ccnc3c2)nc1Cl [Example 60, 7-[6-chloro-5-methyl-3-(1-{[1-(trifluoromethyl)cyclo-propyl]methyl}-1H-pyrazol-4-yl)pyridin-2-yl]imidazo[1,2-a]pyridine] | 64.3 nM |
| Cc1nc2cc(-c3ncc(F)cc3-c3cnn(CC4CC(F)(F)C4)c3)ccc2n1C [Example 61, 5-(3-(1-((3,3-difluorocyclobutyl)methyl)-1H-pyrazol-4-yl)-5-fluoropyridin-2-yl)-1,2-dimethyl-1H-benzo[d]imidazole] | 161 nM |
| Cc1nc2cc(-c3nc(C#N)ccc3-c3cnn(CC4(C(C)(F)F)CC4)c3)ccc2n1C [Example 62, 5-(1-{[1-(1,1-difluoroethyl)cyclo-propyl]methyl}-1H-pyrazol-4-yl)-6-(1,2-dimethyl-1H-benzimidazol-5-yl)pyridine-2-carbonitrile] | 66.1 nM |
| Cc1nc2cc(-c3nc(C#N)ccc3-c3cnn(CC(C)(C)C)c3)ccn2n1 [Example 63, 6-(2-methyl-[1,2,4]triazolo[1,5-a]pyridin-7-yl)-5-(1-neopentyl-1H-pyrazol-4-yl)picolinonitrile] | 46.8 nM |
| CC(C)(C)Cn1cc(-c2ccc(C#N)nc2-c2ccn3cc(C(F)F)nc3c2)cn1 [Example 64, 6-[2-(difluoromethyl)imidazo [1,2-a]pyridin-7-yl]-5-[1-(2,2-dimethylpropyl)-1H-pyrazol-4-yl]pyridine-2-carbonitrile] | 14.6 nM |
| CN1Cc2ncc(-c3nc(C#N)ccc3-c3cnn(CC(C)(C)C)c3)cc2C1=O [Example 65, 5-[1-(2,2-dimethylpropyl)-1H-pyrazol-4-yl]-6-(6-methyl-5-oxo-6,7-dihydro-5H-pyrrolo[3,4-b]pyridin-3-yl)pyridine-2-carbonitrile] | 93.1 nM |
| CC(C)(C)Cn1cc(-c2ccc(C#N)nc2-c2ccn3cc(C(F)(F)F)nc3c2)cn1 [Example 66, 5-[1-(2,2-dimethylpropyl)-1H-pyrazol-4-yl]-6-[2-(trifluoromethyl)imidazo [1,2-a]pyridin-7-yl]pyridine-2-carbonitrile] | 54.4 nM |
| CC(C)(C)Cn1cc(-c2ccc(C#N)nc2-c2ccn3cc(Cl)nc3c2)cn1 [Example 67, 6-(2-chloroimidazo[1,2-a]pyridin-7-yl)-5-[1-(2,2-dimethylpropyl)-1H-pyrazol-4-yl]pyridine-2-carbonitrile] | 17.7 nM |
| Cn1nnc2cc(-c3nc(C#N)ccc3-c3cnn(CC(C)(C)C)c3)ccc21 [Example 68, 5-[1-(2,2-dimethylpropyl)-1H-pyrazol-4-yl]-6-(1-methyl-1H-benzotriazol-5-yl)pyridine-2-carbonitrile] | 55.8 nM |
